Tests used:
MCF-7 cells = assay: Breast cancer cell line proliferation inhibitory activity (CellTiter-Glo 2.0); type: cell-based; details: Homo sapiens, MCF7, 120 hours
Procedure, shortened: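 MCF-7 cells exposed to a 12-point, 3-fold dilution series (final 0.00005–10 μM) for 120 h at 37 °C. Viability read by CellTiter-Glo 2.0 luminescence, expressed as percent of vehicle-treated cells. GI50 (nM) derived from the curves.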

human GST-HPK1 (1-346) = target: T1, human GST-HPK1 (1-346) (Homo sapiens, UniProt Q92918); assay: HPK1 enzyme inhibitory ability (ADP-Glo kinase assay); type: biochemical; details: human GST-HPK1 3 ng, ATP 3 uM, 25° C. 2 hours
T1 construct: purified human GST-HPK1 (1-346, Signalchem) enzyme; purchased Signalchem
T1 sequence (Q92918 1-346): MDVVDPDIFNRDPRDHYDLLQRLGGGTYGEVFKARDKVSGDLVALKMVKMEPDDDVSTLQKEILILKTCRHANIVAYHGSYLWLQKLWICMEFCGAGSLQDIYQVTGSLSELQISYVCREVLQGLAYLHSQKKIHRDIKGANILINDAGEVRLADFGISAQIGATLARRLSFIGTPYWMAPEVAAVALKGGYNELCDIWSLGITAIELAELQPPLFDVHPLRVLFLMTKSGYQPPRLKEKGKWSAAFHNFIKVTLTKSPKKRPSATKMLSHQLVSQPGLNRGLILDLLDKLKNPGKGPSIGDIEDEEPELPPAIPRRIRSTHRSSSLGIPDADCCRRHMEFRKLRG
Procedure, shortened: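 Human GST-HPK1(1-346), 3 ng, reacted with 3 uM ATP and specific substrate in 40 mM Tris-HCl pH 7.4, 20 mM MgCl2, 0.5 mg/mL BSA, 50 uM DTT for 2 h at 25° C. ADP-Glo luminescence read; IC50 (nM) relative to untreated solvent control.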

MV4-11 cells = assay: AML cell proliferation inhibitory activity (CellTiter-Glo); type: cell-based; details: Homo sapiens, 72 hours
Procedure, shortened: (§1)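 RS4;11 and MV4-11 cells in RPMI-1640 with 10% FBS, seeded 24 h before treatment, then exposed 72 h to 12 three-fold dilutions (0.3 nM–50 μM final). Viability by CellTiter-Glo luminescence relative to solvent control; GI50 from triplicate experiments.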

RS4;11 cells = assay: as above; type: cell-based; details: Homo sapiens, 72 hours
Procedure, shortened: as §1

human FLT3-ITD enzyme = target: T2, human FLT3-ITD enzyme (Homo sapiens, UniProt P36888); assay: FLT3 enzyme inhibitory ability (ADP-Glo kinase assay); type: biochemical; details: human FLT3-ITD enzyme 10 ng, ATP 10 μM, 25° C. 1 hour
T2 sequence (P36888 1-993): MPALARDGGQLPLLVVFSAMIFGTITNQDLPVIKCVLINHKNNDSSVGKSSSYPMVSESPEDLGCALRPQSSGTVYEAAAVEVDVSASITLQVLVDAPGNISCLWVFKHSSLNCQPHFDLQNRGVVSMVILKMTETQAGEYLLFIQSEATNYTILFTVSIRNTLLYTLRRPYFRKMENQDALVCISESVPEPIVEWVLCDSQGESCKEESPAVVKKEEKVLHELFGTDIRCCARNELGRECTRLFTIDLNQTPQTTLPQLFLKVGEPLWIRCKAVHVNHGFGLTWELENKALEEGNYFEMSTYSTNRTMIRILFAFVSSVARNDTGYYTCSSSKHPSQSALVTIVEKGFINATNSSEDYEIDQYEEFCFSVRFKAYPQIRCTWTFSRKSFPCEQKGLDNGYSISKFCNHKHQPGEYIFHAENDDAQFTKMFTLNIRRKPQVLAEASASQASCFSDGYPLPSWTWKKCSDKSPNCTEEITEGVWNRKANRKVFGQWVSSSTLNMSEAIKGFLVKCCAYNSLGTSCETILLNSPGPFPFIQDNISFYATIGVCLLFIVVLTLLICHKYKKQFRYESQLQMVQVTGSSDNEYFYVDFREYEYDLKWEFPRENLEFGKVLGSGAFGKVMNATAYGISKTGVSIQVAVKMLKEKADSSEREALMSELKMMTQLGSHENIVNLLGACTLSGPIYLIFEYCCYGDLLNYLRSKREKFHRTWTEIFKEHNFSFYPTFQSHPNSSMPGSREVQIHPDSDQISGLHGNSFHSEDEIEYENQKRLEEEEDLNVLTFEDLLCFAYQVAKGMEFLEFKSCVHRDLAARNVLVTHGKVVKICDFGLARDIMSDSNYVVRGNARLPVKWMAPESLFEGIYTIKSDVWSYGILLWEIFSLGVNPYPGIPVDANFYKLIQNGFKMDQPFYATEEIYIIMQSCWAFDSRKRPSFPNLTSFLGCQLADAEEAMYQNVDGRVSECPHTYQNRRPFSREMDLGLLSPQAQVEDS
Procedure, shortened: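 Purified human FLT3-ITD (10 ng) with 10 μM ATP and specific substrate in 40 mM Tris-HCl pH 7.4, 20 mM MgCl2, 0.5 mg/mL BSA, 50 μM DTT, 1 h at 25 °C. ADP formation read by ADP-Glo luminescence; IC50 (nM) versus solvent-treated control.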

GI50 (MCF-7 cells) | IC50 (human GST-HPK1 (1-346)) | GI50 (MV4-11 cells) | GI50 (RS4;11 cells) | IC50 (human FLT3-ITD enzyme) | SMILES
> 500 nM | > 500 nM | > 500 nM | > 500 nM | > 500 nM | CN1CCN(c2ccc(Nc3nc(N4N=CCC4c4ccccc4)c4sccc4n3)cn2)CC1 (stereo not drawn) [Example 5, N-(6-(4-methylpiperazin-1-yl)pyridin-3-yl)-4-(5-phenyl-4,5-dihydro-1H-pyrazol-1-yl)thieno[3,2-d]pyrimidin-2-amine]
> 500 nM | > 500 nM | 250 to 500 nM | > 500 nM | > 500 nM | CN1CCC(Oc2ccc(Nc3nc(N4N=CCC4c4ccccc4)c4sccc4n3)cc2)CC1 (stereo not drawn) [Example 13, N-(4-((1-methylpiperidin-4-yl)oxy)phenyl)-4-(5-phenyl-4,5-dihydro-1H-pyrazol-1-yl)thieno[3,2-d]pyrimidin-2-amine]
> 500 nM | > 500 nM | ≥ 250 nM | > 500 nM | ≥ 250 nM | CN1CCC(NC(=O)c2ccc(Nc3nc(N4N=CCC4c4ccccc4)c4sccc4n3)cc2)CC1 (stereo not drawn) [Example 19, N-(1-methylpiperidin-4-yl)-4-((4-(5-phenyl-4,5-dihydro-1H-pyrazol-1-yl)thieno[3,2-d]pyrimidin-2-yl)amino)benzamide]
> 500 nM | > 500 nM | > 500 nM | > 500 nM | > 500 nM | CN1CCN(C(=O)c2ccc(Nc3nc(N4N=CCC4c4ccccc4)c4sccc4n3)cc2)CC1 (stereo not drawn) [Example 11, (4-methylpiperazin-1-yl)(4-((4-(5-phenyl-4,5-dihydro-1H-pyrazol-1-yl)thieno[3,2-d]pyrimidin-2-yl)amino)phenyl)methanone]
> 500 nM | > 500 nM | ≥ 250 nM | > 500 nM | ≥ 250 nM | CN(C)C1CCN(c2ccc(Nc3nc(N4N=CCC4c4ccccc4)c4sccc4n3)cc2)CC1 (stereo not drawn) [Example 38, N-(4-(4-(dimethylamino)piperidin-1-yl)phenyl)-4-(5-phenyl-4,5-dihydro-1H-pyrazol-1-yl)thieno[3,2-d]pyrimidin-2-amine]
> 500 nM | > 500 nM | 250 to 500 nM | > 500 nM | > 500 nM | CN1CCC(n2cc(Nc3nc(N4N=CCC4c4ccccc4)c4sccc4n3)cn2)CC1 (stereo not drawn) [Example 29, N-(1-(1-methylpiperidin-4-yl)-1H-pyrazol-4-yl)-4-(5-phenyl-4,5-dihydro-1H-pyrazol-1-yl)thieno[3,2-d]pyrimidin-2-amine]
> 500 nM | > 500 nM | 250 to 500 nM | > 500 nM | ≥ 250 nM | CN1CCN(C2CCN(c3ccc(Nc4nc(N5N=CCC5c5ccccc5)c5sccc5n4)cc3)CC2)CC1 (stereo not drawn) [Example 7, N-(4-(4-(4-methylpiperazin-1-yl)piperidin-1-yl)phenyl)-4-(5-phenyl-4,5-dihydro-1H-pyrazol-1-yl)thieno[3,2-d]pyrimidin-2-amine]
 |  | > 500 nM | > 500 nM | > 500 nM | CN1CCN(c2ccc(Nc3nc(N4N=CCC4c4ccccn4)c4sccc4n3)cc2)CC1 (stereo not drawn) [Example 33, N-(4-(4-methylpiperazin-1-yl)phenyl)-4-(5-(pyridin-2-yl)-4,5-dihydro-1H-pyrazol-1-yl)thieno[3,2-d]pyrimidin-2-amine]
 |  | > 500 nM | > 500 nM | > 500 nM | C1=NN(c2nc(Nc3ccc(N4CCC(N5CCOCC5)CC4)cc3)nc3ccsc23)C(c2ccccc2)C1 (stereo not drawn) [Example 9, N-(4-(4-morpholinopiperidin-1-yl)phenyl)-4-(5-phenyl-4,5-dihydro-1H-pyrazol-1-yl)thieno[3,2-d]pyrimidin-2-amine]
 | > 500 nM | ≥ 250 nM | > 500 nM | > 500 nM | CN1CCN(c2ccc(Nc3nc(N4N=CCC4c4cccc(F)c4)c4sccc4n3)cc2)CC1 (stereo not drawn) [Example 36, 4-(5-(3-fluorophenyl)-4,5-dihydro-1H-pyrazol-1-yl)-N-(4-(4-methylpiperazin-1-yl)phenyl)thieno[3,2-d]pyrimidin-2-amine]

The next lines start with the molecule.

SMILES | GI50 (MCF-7 cells) | IC50 (human GST-HPK1 (1-346)) | GI50 (MV4-11 cells) | GI50 (RS4;11 cells) | IC50 (human FLT3-ITD enzyme)
CCN(CC)CCCOc1ccc(Nc2nc(N3N=CCC3c3ccccc3)c3sccc3n2)cc1 (stereo not drawn) [Example 47, N-(4-(3-(diethylamino)propoxy)phenyl)-4-(5-phenyl-4,5-dihydro-1H-pyrazol-1-yl)thieno[3,2-d]pyrimidin-2-amine] | > 500 nM | > 500 nM | ≥ 250 nM | > 500 nM | 250 to 500 nM
C[C@@H]1CN(Cc2cc(Nc3nc(N4N=CCC4c4ccccc4)c4sccc4n3)cc(C3CC3)c2)C[C@H](C)N1 (stereo partly drawn) [Example 12, N-(3-cyclopropyl-5-(((3R,5S)-3,5-dimethylpiperazin-1-yl)methyl)phenyl)-4-(5-phenyl-4,5-dihydro-1H-pyrazol-1-yl)thieno[3,2-d]pyrimidin-2-amine] | > 500 nM | > 500 nM | 250 to 500 nM | > 500 nM | > 500 nM
C1=NN(c2nc(Nc3cnn(C4CCNCC4)c3)nc3ccsc23)C(c2ccccc2)C1 (stereo not drawn) [Example 28, 4-(5-phenyl-4,5-dihydro-1H-pyrazol-1-yl)-N-(1-(piperidin-4-yl)-1H-pyrazol-4-yl)thieno[3,2-d]pyrimidin-2-amine] | > 500 nM | > 500 nM | ≥ 250 nM | > 500 nM | ≥ 250 nM
CCN1CCN(c2ccc(Nc3nc(N4OCC[C@H]4c4ccccc4)c4cc[nH]c4n3)cc2)CC1 [Example 79, (S)-N-(4-(4-ethylpiperazin-1-yl)phenyl)-4-(3-phenylisoxazolidin-2-yl)-7H-pyrrolo[2,3-d]pyrimidin-2-amine] | > 500 nM | ≥ 250 nM | ≥ 250 nM | > 500 nM | 250 to 500 nM
CN1Cc2cc(Nc3nc(N4N=CCC4c4ccccc4)c4sccc4n3)ccc2C1=O (stereo not drawn) [Example 25, 2-methyl-5-((4-(5-phenyl-4,5-dihydro-1H-pyrazol-1-yl)thieno[3,2-d]pyrimidin-2-yl)amino)isoindolin-1-one] | > 500 nM | > 500 nM | 250 to 500 nM | > 500 nM | > 500 nM
CCN(CC)CCCOc1c(C)cc(Nc2nc(N3N=CCC3c3ccccc3)c3sccc3n2)cc1C (stereo not drawn) [Example 48, N-(4-(3-(diethylamino)propoxy)-3,5-dimethylphenyl)-4-(5-phenyl-4,5-dihydro-1H-pyrazol-1-yl)thieno[3,2-d]pyrimidin-2-amine] | > 500 nM | > 500 nM | > 500 nM | > 500 nM | > 500 nM
COc1cc(Nc2nc(N3N=CCC3c3ccccc3)c3sccc3n2)cc(OC)c1OC (stereo not drawn) [Example 51, 4-(5-phenyl-4,5-dihydro-1H-pyrazol-1-yl)-N-(3,4,5-trimethoxyphenyl)thieno[3,2-d]pyrimidin-2-amine] |  |  | ≥ 250 nM | > 500 nM | > 500 nM
